The results in this text go back to patent US20240158446A1, “CYCLIC COMPOUND HAVING SELECTIVE INHIBITORY ACTION ON KRAS OVER HRAS AND NRAS” (CHUGAI SEIYAKU KABUSHIKI KAISHA, priority 2021, published 2024).

The target of experiment [1] is GDP-bound KRAS wild-type protein (Homo sapiens, UniProt P01116). The experiment can be described thus: Binding to KRAS by surface plasmon resonance (SPR), Single Cycle Kinetics. As to conditions: SPR, Single Cycle Kinetics, GDP-bound KRAS wild-type protein; read-out: KRAS KD.
Sequence of GDP-bound KRAS wild-type protein (P01116 whole entry): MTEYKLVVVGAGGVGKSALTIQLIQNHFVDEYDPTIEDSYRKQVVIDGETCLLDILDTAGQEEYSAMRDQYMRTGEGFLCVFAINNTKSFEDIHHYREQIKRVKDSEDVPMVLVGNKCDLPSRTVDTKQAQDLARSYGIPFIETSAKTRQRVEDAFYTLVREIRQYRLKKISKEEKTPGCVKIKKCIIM
The target of experiment [2] is GDP-bound HRAS wild-type protein (Homo sapiens, UniProt P01112). Briefly: Binding to HRAS by surface plasmon resonance (SPR), Single Cycle Kinetics. Conditions: SPR, GDP-bound HRAS wild-type protein vs GDP-bound KRAS wild-type protein.
Sequence of GDP-bound HRAS wild-type protein (P01112 whole entry): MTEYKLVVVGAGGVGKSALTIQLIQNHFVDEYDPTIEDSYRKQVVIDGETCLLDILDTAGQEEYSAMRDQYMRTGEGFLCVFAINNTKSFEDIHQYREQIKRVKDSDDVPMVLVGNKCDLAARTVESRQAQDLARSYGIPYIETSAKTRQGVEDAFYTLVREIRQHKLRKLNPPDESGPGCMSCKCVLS
Experiment [3] concerns the target GDP-bound NRAS wild-type protein (Homo sapiens, UniProt P01111). The experiment can be described thus: Binding to NRAS by surface plasmon resonance (SPR), Single Cycle Kinetics. Conditions: SPR, GDP-bound NRAS wild-type protein vs GDP-bound KRAS wild-type protein.

Sequence of GDP-bound NRAS wild-type protein (P01111 whole entry): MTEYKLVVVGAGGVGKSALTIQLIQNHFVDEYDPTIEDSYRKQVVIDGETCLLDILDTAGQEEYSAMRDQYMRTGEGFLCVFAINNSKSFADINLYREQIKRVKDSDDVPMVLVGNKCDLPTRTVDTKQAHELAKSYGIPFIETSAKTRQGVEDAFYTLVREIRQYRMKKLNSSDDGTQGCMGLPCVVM

Consider `CCCO[C@@H]1CCN2C(=O)[C@H](CCc3cc(F)c(C(F)(F)F)c(F)c3)NC(=O)CN(C)C(=O)[C@H](Cc3ccc(C(F)(F)F)cc3)N3CCCC[C@@H](C3=O)N(C)C(=O)CN(C)C(=O)[C@H]([C@@H](C)CC)NC(=O)[C@H](CC(C)C)N(C)C(=O)C[C@@H](C(=O)N3CCOCC3)N(C)C(=O)[C@H](C3CCCC3)N(C)C(=O)C3(CCC3)NC(=O)[C@H]12` [PP1080], for which the Kd in experiment [1] worked out at 240 pM. Further, the “HRAS/KRAS (ratio of KD value for HRAS to KD value for KRAS)” value in experiment [2] is “B (a compound having 3 or more and less than 10 is denoted as B)”. The “NRAS/KRAS (ratio of KD value for NRAS to KD value for KRAS)” value in experiment [3] is “B (a compound having 3 or more and less than 10 is denoted as B)”.
For `CC[C@H](C)[C@@H]1NC(=O)[C@H](CC(C)C)N(C)C(=O)C[C@@H](C(=O)N2CCOCC2)N(C)C(=O)[C@H](C2CCCC2)N(C)C(=O)C2(CCC2)NC(=O)[C@@H]2[C@H](OC)CCN2C(=O)[C@H](CCc2cc(F)c(C(F)(F)F)c(F)c2)NC(=O)CN(C)C(=O)[C@H](Cc2ccc(C(F)(F)F)cc2)N2CCCCC[C@@H](C2=O)N(C)C(=O)CN(C)C1=O` [PP1085], in experiment [1], the Kd was 950 pM. Also, the “HRAS/KRAS (ratio of KD value for HRAS to KD value for KRAS)” value in experiment [2] is “A (a compound having 10 or more and less than 20 is denoted as A)”. Also, the “NRAS/KRAS (ratio of KD value for NRAS to KD value for KRAS)” value in experiment [3] was “A (a compound having 10 or more and less than 20 is denoted as A)”.
For the compound `CCO[C@@H]1C[C@H]2C(=O)NC3(CCC3)C(=O)N(C)[C@@H](C3CCCCC3)C(=O)N(C)[C@H](C(=O)N(C)C)CC(=O)N(C)[C@@H](CC)C(=O)N[C@@H]([C@@H](C)CC)C(=O)N(C)CC(=O)N(C)[C@H]3C/C=C\CCN(C3=O)[C@@H](Cc3ccc(C(F)(F)F)cc3)C(=O)N(C)CC(=O)N[C@@H](CCc3cc(F)c(C(F)(F)F)c(F)c3)C(=O)N2C1` [PP1086, (2S,8S,12R,14S,20S,23S,27S,30S,36S,38Z)-20-cyclohexyl-8-[2-[3,5-difluoro-4-(trifluoromethyl)phenyl]ethyl]-12-ethoxy-27-ethyl-N,N,4,19,22,26,32,35-octamethyl-30-[(1S)-1-methylpropyl]-3,6,9,15,18,21,25,28,31,34,42-undecaoxo-2-[[4-(trifluoromethyl)phenyl]methyl]spiro[1,4,7,10,16,19,22,26,29,32,35-undecazatricyclo[34.5.1.0^10,14]dotetracont-38-ene-17,1′-cyclobutane]-23-carboxamide], the Kd in experiment [1] was 130 pM. The “HRAS/KRAS (ratio of KD value for HRAS to KD value for KRAS)” value in experiment [2] is “A (a compound having 10 or more and less than 20 is denoted as A)”. In experiment [3], the “NRAS/KRAS (ratio of KD value for NRAS to KD value for KRAS)” value is “AA (a compound having 20 or more is denoted as AA)”.
`CCO[C@@H]1C[C@H]2C(=O)NC3(CCC3)C(=O)N(C)[C@@H]([C@@H](C)CC)C(=O)N(C)[C@H](C(=O)N(C)C)CC(=O)N(C)[C@@H](CC)C(=O)N[C@@H]([C@@H](C)CC)C(=O)N(C)CC(=O)N(C)[C@H]3C/C=C\CCN(C3=O)[C@@H](Cc3ccc(C(F)(F)F)cc3)C(=O)N(C)CC(=O)N[C@@H](CCc3cc(F)c(C(F)(F)F)c(F)c3)C(=O)N2C1` [PP1087, (2S,8S,12R,14S,20S,23S,27S,30S,36S,38Z)-8-[2-[3,5-difluoro-4-(trifluoromethyl)phenyl]ethyl]-12-ethoxy-27-ethyl-N,N,4,19,22,26,32,35-octamethyl-20,30-bis[(1S)-1-methylpropyl]-3,6,9,15,18,21,25,28,31,34,42-undecaoxo-2-[[4-(trifluoromethyl)phenyl]methyl]spiro[1,4,7,10,16,19,22,26,29,32,35-undecazatricyclo[34.5.1.0^10,14]dotetracont-38-ene-17,1′-cyclobutane]-23-carboxamide]: the Kd in experiment [1] is 95 pM. Also, the “HRAS/KRAS (ratio of KD value for HRAS to KD value for KRAS)” value in experiment [2] is “A (a compound having 10 or more and less than 20 is denoted as A)”. In addition, the “NRAS/KRAS (ratio of KD value for NRAS to KD value for KRAS)” value in experiment [3] was “A (a compound having 10 or more and less than 20 is denoted as A)”.
With `CCO[C@@H]1C[C@H]2C(=O)NC3(CCC3)C(=O)N(C)[C@@H](C(C)C)C(=O)N(C)[C@H](C(=O)N(C)C)CC(=O)N(C)[C@@H](CC)C(=O)N[C@@H]([C@@H](C)CC)C(=O)N(C)CC(=O)N(C)[C@H]3C/C=C\CCN(C3=O)[C@@H](Cc3ccc(C(F)(F)F)cc3)C(=O)N(C)CC(=O)N[C@@H](CCc3cc(F)c(C(F)(F)F)c(F)c3)C(=O)N2C1` [PP1088], in experiment [1], the Kd is 550 pM. For the same compound, in experiment [2], the “HRAS/KRAS (ratio of KD value for HRAS to KD value for KRAS)” value was “A (a compound having 10 or more and less than 20 is denoted as A)”. Besides, the “NRAS/KRAS (ratio of KD value for NRAS to KD value for KRAS)” value in experiment [3] was “A (a compound having 10 or more and less than 20 is denoted as A)”.
`CCO[C@@H]1C[C@H]2C(=O)NC3(CCC3)C(=O)N(C)[C@@H](CC(C)C)C(=O)N(C)[C@H](C(=O)N(C)C)CC(=O)N(C)[C@@H](CC)C(=O)N[C@@H]([C@@H](C)CC)C(=O)N(C)CC(=O)N(C)[C@H]3C/C=C\CCN(C3=O)[C@@H](Cc3ccc(C(F)(F)F)cc3)C(=O)N(C)CC(=O)N[C@@H](CCc3cc(F)c(C(F)(F)F)c(F)c3)C(=O)N2C1` [PP1089, (2S,8S,12R,14S,20S,23S,27S,30S,36S,38Z)-8-[2-[3,5-difluoro-4-(trifluoromethyl)phenyl]ethyl]-12-ethoxy-27-ethyl-20-isobutyl-N,N,4,19,22,26,32,35-octamethyl-30-[(1S)-1-methylpropyl]-3,6,9,15,18,21,25,28,31,34,42-undecaoxo-2-[[4-(trifluoromethyl)phenyl]methyl]spiro[1,4,7,10,16,19,22,26,29,32,35-undecazatricyclo[34.5.1.0^10,14]dotetracont-38-ene-17,1′-cyclobutane]-23-carboxamide]: in experiment [1], the Kd was found to be 120 pM. Moreover, the “HRAS/KRAS (ratio of KD value for HRAS to KD value for KRAS)” value in experiment [2] was “A (a compound having 10 or more and less than 20 is denoted as A)”. Besides, the “NRAS/KRAS (ratio of KD value for NRAS to KD value for KRAS)” value in experiment [3] is “AA (a compound having 20 or more is denoted as AA)”.
Regarding `CCO[C@@H]1C[C@H]2C(=O)NC3(CCC3)C(=O)N(C)[C@@H](C3CCCC3)C(=O)N(C)[C@H](C(=O)N3CCCC3)CC(=O)N(C)[C@@H](CC)C(=O)N[C@@H]([C@@H](C)CC)C(=O)N(C)CC(=O)N(C)[C@H]3C/C=C\CCN(C3=O)[C@@H](Cc3ccc(C(F)(F)F)cc3)C(=O)N(C)CC(=O)N[C@@H](CCc3cc(F)c(C(F)(F)F)c(F)c3)C(=O)N2C1` [PP1090, (2S,8S,12R,14S,20S,23S,27S,30S,36S,38Z)-20-cyclopentyl-8-[2-[3,5-difluoro-4-(trifluoromethyl)phenyl]ethyl]-12-ethoxy-27-ethyl-4,19,22,26,32,35-hexamethyl-30-[(1S)-1-methylpropyl]-23-(pyrrolidine-1-carbonyl)-2-[[4-(trifluoromethyl)phenyl]methyl]spiro[1,4,7,10,16,19,22,26,29,32,35-undecazatricyclo[34.5.1.0^10,14]dotetracont-38-ene-17,1′-cyclobutane]-3,6,9,15,18,21,25,28,31,34,42-undecone], the Kd in experiment [1] is 86 pM. In addition, the “HRAS/KRAS (ratio of KD value for HRAS to KD value for KRAS)” value in experiment [2] was “A (a compound having 10 or more and less than 20 is denoted as A)”. The “NRAS/KRAS (ratio of KD value for NRAS to KD value for KRAS)” value in experiment [3] was “AA (a compound having 20 or more is denoted as AA)”.
